Results: patent publication US20240025887A1, “THIENYL AND CYCLOALKYL AMINOPYRIMIDINE COMPOUNDS AS INHIBITORS OF NUAK KINASES, COMPOSITIONS AND USES THEREOF” (Ontario Institute for Cancer Research (OICR), priority 2021, published 2024)

Columns and labels:
Assay type in all cases: biochemical
NUAK1 = target: T1, NUAK1 (Homo sapiens, UniProt O60285); experiment: NUAK1 counter screen
T1 sequence (O60285 1-661): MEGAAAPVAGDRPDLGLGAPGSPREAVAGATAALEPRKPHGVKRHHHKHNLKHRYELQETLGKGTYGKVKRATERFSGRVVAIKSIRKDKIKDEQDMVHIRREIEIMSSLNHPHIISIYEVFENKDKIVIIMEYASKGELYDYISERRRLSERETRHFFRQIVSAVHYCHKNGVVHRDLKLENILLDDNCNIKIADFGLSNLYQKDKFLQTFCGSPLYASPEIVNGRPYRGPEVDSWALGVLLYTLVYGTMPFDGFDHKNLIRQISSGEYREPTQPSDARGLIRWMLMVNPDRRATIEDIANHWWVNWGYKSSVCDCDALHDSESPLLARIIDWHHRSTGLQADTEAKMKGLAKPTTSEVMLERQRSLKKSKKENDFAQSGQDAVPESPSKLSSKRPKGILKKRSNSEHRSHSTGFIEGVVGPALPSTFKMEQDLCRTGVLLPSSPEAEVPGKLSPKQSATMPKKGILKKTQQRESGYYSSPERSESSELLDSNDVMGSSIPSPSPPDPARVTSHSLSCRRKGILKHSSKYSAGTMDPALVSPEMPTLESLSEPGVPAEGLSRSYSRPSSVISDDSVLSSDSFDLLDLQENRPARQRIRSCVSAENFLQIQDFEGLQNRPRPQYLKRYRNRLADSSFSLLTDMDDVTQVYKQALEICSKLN
In short: (§1)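 Radiometric assay with full-length recombinant NUAK2 in 8 mM MOPS pH 7.0, 0.2 mM EDTA, 10 mM magnesium acetate, 300 μM peptide substrate and [33P]-ATP, 40 min at room temperature. Phosphoric acid stop, filter capture, scintillation counting. Aurora A and NUAK1 used as counter screens.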

Aurora A = target: T2, Aurora A (Homo sapiens, UniProt O14965); experiment: Aurora A counter screen; conditions: read-out: AUR-A (IC50)
T2 sequence (O14965 1-403): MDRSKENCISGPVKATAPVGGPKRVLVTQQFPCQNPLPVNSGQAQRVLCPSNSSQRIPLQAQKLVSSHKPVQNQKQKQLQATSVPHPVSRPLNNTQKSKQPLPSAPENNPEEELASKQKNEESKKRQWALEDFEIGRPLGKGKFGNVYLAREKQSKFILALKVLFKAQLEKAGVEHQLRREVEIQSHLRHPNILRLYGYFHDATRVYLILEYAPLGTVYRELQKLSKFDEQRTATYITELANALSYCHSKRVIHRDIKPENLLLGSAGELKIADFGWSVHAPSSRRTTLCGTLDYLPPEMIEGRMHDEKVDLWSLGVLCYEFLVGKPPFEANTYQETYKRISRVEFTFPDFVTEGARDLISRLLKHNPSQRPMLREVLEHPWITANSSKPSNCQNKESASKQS
In short: as §1

NUAK2 (h) = target: T3, NUAK2 (h) (Homo sapiens, UniProt Q9H093); experiment: NUAK2 enzymatic assay (radiometric, Eurofins); conditions: radiometric, full-length recombinant enzyme
T3 construct: This assay was done radiometrically using full-length, recombinant enzyme; purchased Eurofins
T3 sequence (Q9H093 1-628): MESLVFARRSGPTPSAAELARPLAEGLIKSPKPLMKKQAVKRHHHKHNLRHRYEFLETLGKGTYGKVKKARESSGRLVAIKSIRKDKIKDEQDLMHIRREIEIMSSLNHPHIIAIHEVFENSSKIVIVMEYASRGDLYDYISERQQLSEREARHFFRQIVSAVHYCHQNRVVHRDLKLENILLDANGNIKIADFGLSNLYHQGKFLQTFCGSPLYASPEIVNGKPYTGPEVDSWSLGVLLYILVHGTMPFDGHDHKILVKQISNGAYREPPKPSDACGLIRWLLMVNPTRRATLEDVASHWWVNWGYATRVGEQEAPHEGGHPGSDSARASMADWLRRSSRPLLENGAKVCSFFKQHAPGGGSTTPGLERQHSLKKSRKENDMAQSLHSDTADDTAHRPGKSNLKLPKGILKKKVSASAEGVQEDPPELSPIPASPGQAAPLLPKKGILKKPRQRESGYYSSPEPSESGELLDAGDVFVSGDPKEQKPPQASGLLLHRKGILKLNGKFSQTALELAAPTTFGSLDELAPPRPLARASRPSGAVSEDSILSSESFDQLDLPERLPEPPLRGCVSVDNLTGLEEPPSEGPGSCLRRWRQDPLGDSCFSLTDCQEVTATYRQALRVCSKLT
In short: as §1

IC50 (NUAK1) | IC50 (Aurora A) | IC50 (NUAK2 (h)) | SMILES
11 to 100 nM | 101 to 1000 nM | 11 to 100 nM | C[C@H]1CN(C2CCN(c3ccc(Nc4ncc(Cl)c(Nc5ccsc5C(N)=O)n4)c(OC(F)F)c3)CC2)CCN1C [Compound I-65, (S)-3-((5-chloro-2-((2-(difluoromethoxy)-4-(4-(3,4-dimethylpiperazin-1-yl)piperidin-1-yl)phenyl)amino)pyrimidin-4-yl)amino)thiophene-2-carboxamide]
11 to 100 nM | 101 to 1000 nM | 11 to 100 nM | CN1CCC(N(C)c2ccc(Nc3ncc(Cl)c(Nc4ccsc4C(N)=O)n3)c(OC(F)F)c2)CC1 [Compound I-66, 3-((5-chloro-2-((2-(difluoromethoxy)-4-(methyl(1-methylpiperidin-4-yl)amino)phenyl)amino)pyrimidin-4-yl)amino)thiophene-2-carboxamide]
11 to 100 nM | 101 to 1000 nM | 11 to 100 nM | C[C@@H]1CN(C2CCN(c3ccc(Nc4ncc(C(F)(F)F)c(Nc5ccsc5C(N)=O)n4)c(OC(F)F)c3)CC2)C[C@H](C)N1C [Compound I-67, 3-((2-((2-(difluoromethoxy)-4-(4-((3R,5S)-3,4,5-trimethylpiperazin-1-yl)piperidin-1-yl)phenyl)amino)-5-(trifluoromethyl)pyrimidin-4-yl)amino)thiophene-2-carboxamide]
11 to 100 nM | 101 to 1000 nM | 11 to 100 nM | C[C@H]1CN(C2CCN(c3ccc(Nc4ncc(C(F)(F)F)c(Nc5ccsc5C(N)=O)n4)c(OC(F)F)c3)CC2)CCN1C [Compound I-68, (S)-3-((2-((2-(difluoromethoxy)-4-(4-(3,4-dimethylpiperazin-1-yl)piperidin-1-yl)phenyl)amino)-5-(trifluoromethyl)pyrimidin-4-yl)amino)thiophene-2-carboxamide]
11 to 100 nM | 11 to 100 nM | 0.1 to 10 nM | C[C@@H]1CN(C2CCN(c3ccc(Nc4ncc(Cl)c(Nc5ccsc5C(N)=O)n4)c(OC(F)F)c3)CC2)C[C@@H](C)N1C [Compound I-69, 3-((5-chloro-2-((2-(difluoromethoxy)-4-(4-((3R,5R)-3,4,5-trimethylpiperazin-1-yl)piperidin-1-yl)phenyl)amino)pyrimidin-4-yl)amino)thiophene-2-carboxamide]
11 to 100 nM | 11 to 100 nM | 11 to 100 nM | C[C@H]1CN(C)CCN1C1CCN(c2ccc(Nc3ncc(Cl)c(Nc4ccsc4C(N)=O)n3)c(OC(F)F)c2)CC1 [Compound I-70, (S)-3-((5-chloro-2-((2-(difluoromethoxy)-4-(4-(2,4-dimethylpiperazin-1-yl)piperidin-1-yl)phenyl)amino)pyrimidin-4-yl)amino)thiophene-2-carboxamide]
11 to 100 nM | 11 to 100 nM | 11 to 100 nM | NC(=O)c1sccc1Nc1nc(Nc2ccc(N3CCC(N4CCN5CCC[C@@H]5C4)CC3)cc2OC(F)F)ncc1Cl [Compound I-71, (R)-3-((5-chloro-2-((2-(difluoromethoxy)-4-(4-(hexahydropyrrolo[1,2-a]pyrazin-2(1H)-yl)piperidin-1-yl)phenyl)amino)pyrimidin-4-yl)amino)thiophene-2-carboxamide]
11 to 100 nM | 101 to 1000 nM | 11 to 100 nM | CN1CCCN(C2CCN(c3ccc(Nc4ncc(Cl)c(Nc5ccsc5C(N)=O)n4)c(OC(F)F)c3)CC2)CC1 [Compound I-72, 3-((5-chloro-2-((2-(difluoromethoxy)-4-(4-(4-methyl-1,4-diazepan-1-yl)piperidin-1-yl)phenyl)amino)pyrimidin-4-yl)amino)thiophene-2-carboxamide]
11 to 100 nM | 101 to 1000 nM | 11 to 100 nM | CN(C1CCCCC1)C1CCN(c2ccc(Nc3ncc(Cl)c(Nc4ccsc4C(N)=O)n3)c(OC(F)F)c2)CC1 [Compound I-73, 3-((5-chloro-2-((4-(4-(cyclohexyl(methyl)amino)piperidin-1-yl)-2-(difluoromethoxy)phenyl)amino)pyrimidin-4-yl)amino)thiophene-2-carboxamide]
11 to 100 nM | 101 to 1000 nM | 0.1 to 10 nM | NC(=O)c1sccc1Nc1nc(Nc2ccc(N3CCC(N4CCCCC4)CC3)cc2OC(F)F)ncc1C(F)(F)F [Compound I-76]
0.1 to 10 nM | 101 to 1000 nM | 0.1 to 10 nM | CCN1CCN(C2CCN(c3ccc(Nc4ncc(C(F)(F)F)c(Nc5ccsc5C(N)=O)n4)c(OC(F)F)c3)CC2)CC1 [Compound I-77, 3-((2-((2-(difluoromethoxy)-4-(4-(4-ethylpiperazin-1-yl)piperidin-1-yl)phenyl)amino)-5-(trifluoromethyl)pyrimidin-4-yl)amino)thiophene-2-carboxamide]
11 to 100 nM | 101 to 1000 nM | 11 to 100 nM | CC(C)(C)N1CCN(C2CCN(c3ccc(Nc4ncc(C(F)(F)F)c(Nc5ccsc5C(N)=O)n4)c(OC(F)F)c3)CC2)CC1 [Compound I-79, 3-((2-((4-(4-(4-(tert-butyl)piperazin-1-yl)piperidin-1-yl)-2-(difluoromethoxy)phenyl)amino)-5-(trifluoromethyl)pyrimidin-4-yl)amino)thiophene-2-carboxamide]
11 to 100 nM | 101 to 1000 nM | 11 to 100 nM | CN1CCN(C2CCN(c3ccc(Nc4ncc(C#N)c(Nc5ccsc5C(N)=O)n4)c(OC(F)F)c3)CC2)CC1 [Compound I-80, 3-((5-cyano-2-((2-(difluoromethoxy)-4-(4-(4-methylpiperazin-1-yl)piperidin-1-yl)phenyl)amino)pyrimidin-4-yl)amino)thiophene-2-carboxamide]
11 to 100 nM | 101 to 1000 nM | 11 to 100 nM | CN1CCN(C2CCN(c3ccc(Nc4ncc(Cl)c(N[C@@H]5CCC[C@@H]5C(N)=O)n4)c(OC(F)F)c3)CC2)CC1 [Compound I-83, (1S,2R)-2-((5-chloro-2-((2-(difluoromethoxy)-4-(4-(4-methylpiperazin-1-yl)piperidin-1-yl)phenyl)amino)pyrimidin-4-yl)amino)cyclopentane-1-carboxamide]
101 to 1000 nM | > 1000 nM | 11 to 100 nM | CN1CCN(c2ccc(Nc3ncc(Cl)c(N[C@@H]4CCC[C@@H]4C(N)=O)n3)c(C(F)(F)F)c2)CC1 [Compound I-84, (1S,2R)-2-((5-chloro-2-((4-(4-methylpiperazin-1-yl)-2-(trifluoromethyl)phenyl)amino)pyrimidin-4-yl)amino)cyclopentane-1-carboxamide]
101 to 1000 nM | > 1000 nM | 11 to 100 nM | CN1CCN(c2ccc(Nc3ncc(Cl)c(N[C@@H]4CCCC[C@@H]4C(N)=O)n3)c(C(F)(F)F)c2)CC1 [Compound I-85, (1S,2R)-2-((5-chloro-2-((4-(4-methylpiperazin-1-yl)-2-(trifluoromethyl)phenyl)amino)pyrimidin-4-yl)amino)cyclohexane-1-carboxamide]
11 to 100 nM | > 1000 nM | 11 to 100 nM | CN1CCN(c2ccc(Nc3ncc(Cl)c(N[C@@H]4CCC[C@@H]4C(N)=O)n3)c(OC(F)F)c2)CC1 [Compound I-86, (1S,2R)-2-((5-chloro-2-((2-(difluoromethoxy)-4-(4-methylpiperazin-1-yl)phenyl)amino)pyrimidin-4-yl)amino)cyclopentane-1-carboxamide]
